According to US10829478B2, “5-[3-[piperazin-1-yl]-3-oxo-propyl]-imidazolidine-2,4-dione derivatives as ADAMTS 4 and 5 inhibitors for treating e.g. osteoarthritis” (Galapagos NV, priority 2016, dated 2020):
Read-outs that look alike come from different tables or passages of the source.

What was measured:
human ADAMTS4 = human ADAMTS4 (Homo sapiens (Human), UniProt O75173); test: hADAMTS-4 TBIS-1 cleavage assay, Protocol 2; type: biochemical
human ADAMTS6 = human ADAMTS6 (Homo sapiens (Human), UniProt Q9UKP5); test: hADAMTS-6 fluorescent based protease assay (520 MMP FRET substrate XII); type: biochemical; conditions: 37° C. for 2 h; read-out: hADAMTS-6 potency IC50
Method in brief: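 ADAMTS6 (0.73 nM final) in 25 mM Tris pH 8.0, 0.05% CHAPS, 2.5 mM CaCl2 with compound dilution series (top 20 μM, 1/5 steps). Reaction started with 520 MMP FRET Substrate XII, incubated 2 h at 37 °C. Substrate cleavage read by fluorescence ex485/em530; IC50 determined.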

rnADAMTS-5 (1-564-6H) = rnADAMTS-5 (1-564-6H) (Rattus norvegicus (Rat), UniProt Q6TY19); test: Rat ADAMTS-5 TBIS-1 cleavage assay; type: biochemical; conditions: 120 min at 37° C.; read-out: Rat ADAMTS-5 potency IC50
human MMP13 [1] = target: T1, human MMP13 (Homo sapiens (Human), UniProt P45452); test: hMMP13 assay, Protocol 1 (390 MMP FRET Substrate I, Chemicon enzyme); type: biochemical; conditions: Protocol 1, human MMP13 (Chemicon), read-out: hMMP-13 potency IC50
Experimental: (§1) Human MMP13 is preactivated by incubated the enzyme in the same buffer complemented with 1 mM freshly prepared p-Aminophenylmercuric acetate (AMPA) for 1 h at 37° C.

human TACE = human TACE (Homo sapiens (Human), UniProt P78536); test: biochemical
Experimental: Finally, the fluorescence is read on the Envision (Perkin Elmer) after an incubation of 75 min at room temperature (Excitation 485 nm, Emission 530).

human ADAMTS-5 = human ADAMTS-5 (Homo sapiens (Human), UniProt Q9UNA0); test: hADAMTS-5 TBIS-1 cleavage assay, Protocol 3; type: biochemical; conditions: 90 min at 37° C., read-out: hADAMTS-5 potency IC50
Experimental: The reaction is initiated by adding to the assay plate TBIS-1 (10 μL, 4.5 μM, Anaspec) in the same buffer.
Finally, the fluorescence is read on the Envision (Perkin Elmer) after an incubation of 90 min at 37° C. (Excitation 485 nm, emission 530).

human MMP14 = human MMP14 (Homo sapiens (Human), UniProt P50281); test: hMMP14 assay (390 MMP FRET Substrate I); type: biochemical; conditions: human MMP14 (Biomol), read-out: hMMP-14 potency IC50
Experimental: The basis for the assay is the cleavage of the substrate 390 MMP FRET Substrate I (Anaspec Cat #AS-27076) by human MMP14 (Biomol, Cat #SE-259).
The reaction is initiated by adding to the assay plate 390 MMP FRET Substrate I (10 μL, 2.5 μM) in the same buffer.
Finally, the fluorescence is read on the Envision (Perkin Elmer) after an incubation of 60 min at room temperature (Excitation 485 nm, Emission 530).

human MMP13 [2] = target: T1, human MMP13; test: hMMP13 assay, Protocol 2 (390 MMP FRET Substrate I, Enzo enzyme); type: biochemical; conditions: Protocol 2, human MMP13 (Enzo Life Sciences), read-out: hMMP-13 potency IC50
Experimental: as §1

[3] = Protocol 2, 180 min at 37° C., read-out: ADAMTS4 potency IC50

Chain of human TACE (P78536 215-671): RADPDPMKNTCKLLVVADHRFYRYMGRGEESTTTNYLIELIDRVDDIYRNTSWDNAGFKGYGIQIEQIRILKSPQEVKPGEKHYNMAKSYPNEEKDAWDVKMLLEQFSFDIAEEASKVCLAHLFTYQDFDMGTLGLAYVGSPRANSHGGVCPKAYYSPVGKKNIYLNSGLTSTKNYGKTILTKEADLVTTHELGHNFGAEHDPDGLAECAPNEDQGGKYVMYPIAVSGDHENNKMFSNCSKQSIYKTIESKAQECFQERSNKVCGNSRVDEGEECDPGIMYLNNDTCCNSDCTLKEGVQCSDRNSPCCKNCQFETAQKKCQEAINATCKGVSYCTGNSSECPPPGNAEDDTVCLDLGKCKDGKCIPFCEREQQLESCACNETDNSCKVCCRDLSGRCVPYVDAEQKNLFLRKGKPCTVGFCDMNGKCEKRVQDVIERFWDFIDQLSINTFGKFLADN
Chain of human ADAMTS4 (O75173 213-837): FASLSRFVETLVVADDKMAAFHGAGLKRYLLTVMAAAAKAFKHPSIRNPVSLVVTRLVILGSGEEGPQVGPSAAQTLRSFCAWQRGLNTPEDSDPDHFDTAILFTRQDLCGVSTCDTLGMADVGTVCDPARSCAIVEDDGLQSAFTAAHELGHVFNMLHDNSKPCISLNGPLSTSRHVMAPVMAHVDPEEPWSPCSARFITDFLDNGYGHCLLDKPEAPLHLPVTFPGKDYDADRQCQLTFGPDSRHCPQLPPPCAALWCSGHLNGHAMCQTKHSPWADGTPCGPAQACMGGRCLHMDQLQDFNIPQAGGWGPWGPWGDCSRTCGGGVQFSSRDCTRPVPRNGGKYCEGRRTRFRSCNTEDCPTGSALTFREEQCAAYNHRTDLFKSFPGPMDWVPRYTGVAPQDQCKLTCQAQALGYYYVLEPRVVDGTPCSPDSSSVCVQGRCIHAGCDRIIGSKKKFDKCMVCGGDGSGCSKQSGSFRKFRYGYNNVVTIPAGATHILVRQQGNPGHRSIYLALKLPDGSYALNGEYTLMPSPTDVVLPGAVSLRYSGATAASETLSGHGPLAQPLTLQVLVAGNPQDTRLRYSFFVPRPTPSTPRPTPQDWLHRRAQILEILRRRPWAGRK
Chain of human ADAMTS-5 (Q9UNA0 262-930): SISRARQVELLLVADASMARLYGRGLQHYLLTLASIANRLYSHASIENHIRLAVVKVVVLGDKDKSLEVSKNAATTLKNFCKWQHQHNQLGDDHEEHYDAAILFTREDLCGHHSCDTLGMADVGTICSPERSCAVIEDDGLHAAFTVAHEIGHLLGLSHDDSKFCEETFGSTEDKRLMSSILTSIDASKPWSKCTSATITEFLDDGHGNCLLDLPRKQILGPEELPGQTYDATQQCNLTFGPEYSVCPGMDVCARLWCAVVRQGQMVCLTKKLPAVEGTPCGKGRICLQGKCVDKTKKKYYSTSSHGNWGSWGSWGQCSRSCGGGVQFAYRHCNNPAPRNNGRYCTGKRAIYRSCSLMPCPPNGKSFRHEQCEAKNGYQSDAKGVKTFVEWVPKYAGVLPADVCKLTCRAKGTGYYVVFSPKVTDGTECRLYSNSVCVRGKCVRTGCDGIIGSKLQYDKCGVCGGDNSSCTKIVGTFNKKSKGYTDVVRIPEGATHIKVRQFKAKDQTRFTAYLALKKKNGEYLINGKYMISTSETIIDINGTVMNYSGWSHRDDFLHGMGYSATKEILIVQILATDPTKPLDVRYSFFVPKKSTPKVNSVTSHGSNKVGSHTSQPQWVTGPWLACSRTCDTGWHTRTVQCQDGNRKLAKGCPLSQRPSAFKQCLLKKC
Chain of human ADAMTS6 (Q9UKP5 other isoform, or with tags, fused parts or gaps): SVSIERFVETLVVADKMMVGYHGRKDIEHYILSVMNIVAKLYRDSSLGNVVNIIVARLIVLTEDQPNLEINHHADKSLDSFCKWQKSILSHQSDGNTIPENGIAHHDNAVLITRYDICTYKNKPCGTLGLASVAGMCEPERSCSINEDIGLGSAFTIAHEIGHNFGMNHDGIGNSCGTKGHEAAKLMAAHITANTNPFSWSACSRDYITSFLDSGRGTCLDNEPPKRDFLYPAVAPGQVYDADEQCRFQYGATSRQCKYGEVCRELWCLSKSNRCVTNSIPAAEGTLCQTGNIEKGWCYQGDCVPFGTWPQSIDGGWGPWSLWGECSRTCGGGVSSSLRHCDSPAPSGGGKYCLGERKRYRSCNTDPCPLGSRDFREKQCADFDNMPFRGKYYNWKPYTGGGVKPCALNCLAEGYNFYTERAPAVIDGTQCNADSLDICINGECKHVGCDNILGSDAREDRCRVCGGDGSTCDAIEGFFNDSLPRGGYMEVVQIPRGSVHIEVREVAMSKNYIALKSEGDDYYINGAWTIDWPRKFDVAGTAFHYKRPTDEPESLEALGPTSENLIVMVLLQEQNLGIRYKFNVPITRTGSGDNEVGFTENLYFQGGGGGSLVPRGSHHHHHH
Chain of rnADAMTS-5 (1-564-6H) (Q6TY19 entry or part of it): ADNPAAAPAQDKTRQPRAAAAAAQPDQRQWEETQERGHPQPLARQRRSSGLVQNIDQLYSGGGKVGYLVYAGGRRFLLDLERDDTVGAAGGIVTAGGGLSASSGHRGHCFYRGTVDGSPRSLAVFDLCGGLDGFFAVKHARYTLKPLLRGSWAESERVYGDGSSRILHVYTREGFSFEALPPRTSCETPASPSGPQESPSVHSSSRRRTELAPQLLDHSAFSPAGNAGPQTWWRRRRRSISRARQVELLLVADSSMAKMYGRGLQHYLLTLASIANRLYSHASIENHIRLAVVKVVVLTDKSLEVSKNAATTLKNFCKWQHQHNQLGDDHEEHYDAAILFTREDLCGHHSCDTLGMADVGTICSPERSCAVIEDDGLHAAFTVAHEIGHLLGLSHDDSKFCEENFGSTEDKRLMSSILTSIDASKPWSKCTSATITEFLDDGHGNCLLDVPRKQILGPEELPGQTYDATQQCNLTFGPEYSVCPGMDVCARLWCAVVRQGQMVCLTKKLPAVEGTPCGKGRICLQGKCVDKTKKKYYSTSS

Compound	IC50 (human ADAMTS6) [nM]	IC50 (human ADAMTS-5) [nM]	IC50 (human ADAMTS4; [3]) [nM]	IC50 (human MMP14) [nM]	IC50 (human MMP13 [2]) [nM]	IC50 (human ADAMTS4) [nM]	IC50 (rnADAMTS-5 (1-564-6H)) [nM]	IC50 (human MMP13 [1]) [nM]	IC50 (human TACE) [nM]
COc1cc(N2CCN(C(=O)[C@@H](C)C[C@@]3(C)NC(=O)NC3=O)CC2)cc(OC)c1Cl (stereo in doubt) [Cpd 40, 5-[3-[4-(4-chloro-3,5-dimethoxy-phenyl)piperazin-1-yl]-2-methyl-3-oxo-propyl]-5-methyl-imidazolidine-2,4-dione]	0.001 to 25	50 to 100	–	–	–	25 to 50	> 100	> 100	> 100
COc1cc(N2CCN(C(=O)CCC3(C4CC4)NC(=O)NC3=O)C[C@@H]2C)cc(F)c1F (stereo partly drawn) [Cpd 21, 5-cyclopropyl-5-[3-[(3S)-4-(3,4-difluoro-5-methoxy-phenyl)-3-methyl-piperazin-1-yl]-3-oxo-propyl]imidazolidine-2,4-dione]	0.001 to 25	0.001 to 25	–	–	–	50 to 100	0.001 to 25	> 100	> 100
COc1cc(F)cc(N2CCN(C(=O)CCC3(c4cccnc4)NC(=O)NC3=O)CC2)c1 (stereo not drawn) [Cpd 23, 5-[3-[4-(3-fluoro-5-methoxy-phenyl)piperazin-1-yl]-3-oxo-propyl]-5-(3-pyridyl)imidazolidine-2,4-dione]	25 to 50	50 to 100	–	–	–	50 to 100	50 to 100	> 100	> 100
COc1cc(F)cc(N2CCN(C(=O)[C@@H](C)C[C@@]3(C4CC4)NC(=O)NC3=O)CC2)c1 [Cpd 26, (5 S)-5-cyclopropyl-5-[(2S)-3-[4-(3-fluoro-5-methoxy-phenyl)piperazin-1-yl]-2-methyl-3-oxo-propyl]imidazolidine-2,4-dione]	0.001 to 25	0.001 to 25	–	–	–	0.001 to 25	0.001 to 25	> 100	> 100
COc1cc(F)cc(N2CCN(C(=O)[C@@H](C)C[C@@]3(C)NC(=O)NC3=O)CC2)c1 [Cpd 27, (5R)-5-[(2S)-3-[4-(3-fluoro-5-methoxy-phenyl)piperazin-1-yl]-2-methyl-3-oxo-propyl]-5-methyl-imidazolidine-2,4-dione]	0.001 to 25	25 to 50	–	–	–	25 to 50	25 to 50	> 100	> 100
COc1cc(N2CCN(C(=O)[C@@H](C)C[C@@]3(C4CC4)NC(=O)NC3=O)C[C@@H]2C)cc(F)c1F [Cpd 29, 5-cyclopropyl-5-[(2S)-3-[(3S)-4-(3,4-difluoro-5-methoxy-phenyl)-3-methyl-piperazin-1-yl]-2-methyl-3-oxo-propyl]imidazolidine-2,4-dione]	0.001 to 25	25 to 50	–	–	–	25 to 50	25 to 50	> 100	> 100
COc1cc(N2CCN(C(=O)[C@@H](C)C[C@@]3(C)NC(=O)NC3=O)CC2)cc(F)c1Cl [Cpd 122, (5R)-5-[(2S)-3-[4-(4-chloro-3-fluoro-5-methoxy-phenyl)piperazin-1-yl]-2-methyl-3-oxo-propyl]-5-methyl-imidazolidine-2,4-dione]	0.001 to 25	0.001 to 25	–	> 100	> 100	50 to 100	–	–	> 100
COC[C@]1(C[C@H](C)C(=O)N2CCN(c3cc(F)c(Cl)c(OC)c3)CC2)NC(=O)NC1=O [Cpd 123, (5 S)-5-[(2S)-3-[4-(4-chloro-3-fluoro-5-methoxy-phenyl)piperazin-1-yl]-2-methyl-3-oxo-propyl]-5-(methoxymethyl)imidazolidine-2,4-dione]	0.001 to 25	0.001 to 25	–	> 100	> 100	50 to 100	–	–	> 100

Second part, led by results:

IC50 (human ADAMTS6) [nM]	IC50 (human ADAMTS-5) [nM]	IC50 (human ADAMTS4; [3]) [nM]	IC50 (human MMP14) [nM]	IC50 (human MMP13 [2]) [nM]	Compound	IC50 (human ADAMTS4) [nM]	IC50 (rnADAMTS-5 (1-564-6H)) [nM]	IC50 (human MMP13 [1]) [nM]	IC50 (human TACE) [nM]
> 100	> 100	–	–	–	COc1cc(F)cc(N2CCN(C(=O)[C@H](C)C[C@@]3(C4CC4)NC(=O)NC3=O)CC2)c1 (stereo in doubt) [Cpd 130, 5-cyclopropyl-5-[3-[4-(3-fluoro-5-methoxy-phenyl)piperazin-1-yl]-2-methyl-3-oxo-propyl]imidazolidine-2,4-dione]	–	> 100	–	–
> 100	> 100	–	–	–	COc1cc(F)cc(N2CCN(C(=O)[C@H](C)C[C@@]3(C)NC(=O)NC3=O)CC2)c1 (stereo in doubt) [Cpd 131, 5-[3-[4-(3-fluoro-5-methoxy-phenyl)piperazin-1-yl]-2-methyl-3-oxo-propyl]-5-methyl-imidazolidine-2,4-dione]	–	> 100	–	–
25 to 50	> 100	> 100	–	–	COc1cc(OC)cc(N2CCN(C(=O)CCC3(C)NC(=O)NC3=O)C[C@@H]2C)c1 (stereo partly drawn) [Cpd 25, 5-[3-[(3 S)-4-(3,5-dimethoxyphenyl)-3-methyl-piperazin-1-yl]-3-oxo-propyl]-5-methyl-imidazolidine-2,4-dione]	–	> 100	> 100	> 100
25 to 50	> 100	> 100	–	–	COc1cc(N2CCN(C(=O)CCC3(c4cccnc4)NC(=O)NC3=O)CC2)cc(F)c1F (stereo not drawn) [Cpd 28, 5-[3-[4-(3,4-difluoro-5-methoxy-phenyl)piperazin-1-yl]-3-oxo-propyl]-5-(3-pyridyl)imidazolidine-2,4-dione]	–	50 to 100	> 100	> 100
0.001 to 25	0.001 to 25	> 100	> 100	> 100	COc1cc(N2CCN(C(=O)CC[C@@]3(C)NC(=O)NC3=O)C[C@@H]2C)cc(F)c1Cl [Cpd 119, (5R)-5-[3-[(3 S)-4-(4-chloro-3-fluoro-5-methoxy-phenyl)-3-methyl-piperazin-1-yl]-3-oxo-propyl]-5-methyl-imidazolidine-2,4-dione]	–	–	–	> 100
> 100	> 100	> 100	> 100	> 100	COc1cc(N2CCN(C(=O)CC[C@]3(C)NC(=O)NC3=O)C[C@@H]2C)ccc1Cl [Cpd 146, (5 S)-5-[3-[(3 S)-4-(4-chloro-3-methoxy-phenyl)-3-methyl-piperazin-1-yl]-3-oxo-propyl]-5-methyl-imidazolidine-2,4-dione]	–	–	–	> 100
0.001 to 25	> 100	> 100	> 100	> 100	COc1cc(N2CCN(C(=O)CC[C@H]3NC(=O)NC3=O)CC2)cc(Cl)c1F [Cpd 147, (5R)-5-[3-[4-(3-chloro-4-fluoro-5-methoxy-phenyl)piperazin-1-yl]-3-oxo-propyl]imidazolidine-2,4-dione]	–	–	–	> 100
0.001 to 25	25 to 50	> 100	> 100	> 100	COc1cc(N2CCN(C(=O)CC[C@H]3NC(=O)NC3=O)C[C@@H]2C)cc(Cl)c1F [Cpd 148, (5R)-5-[3-[(3 S)-4-(3-chloro-4-fluoro-5-methoxy-phenyl)-3-methyl-piperazin-1-yl]-3-oxo-propyl]imidazolidine-2,4-dione]	–	–	–	> 100
0.001 to 25	> 100	> 100	> 100	> 100	CCOc1cc(N2CCN(C(=O)CC[C@H]3NC(=O)NC3=O)C[C@@H]2C)cc(OC)c1Cl [Cpd 150, (5R)-5-[3-[(3 S)-4-(4-chloro-3-ethoxy-5-methoxy-phenyl)-3-methyl-piperazin-1-yl]-3-oxo-propyl]imidazolidine-2,4-dione]	–	–	–	> 100
